From patent publication US20170143716A1, “METHOD OF TREATING PROLIFERATIVE DISORDERS AND OTHER PATHOLOGICAL CONDITIONS MEDIATED BY BCR-ABL, C-KIT, DDR1, DDR2 OR PDGF-R KINASE ACTIVITY” (Novartis AG, priority 2009, published 2017)

Tests used:
[1] = human, in vivo, po, 400 mg
Description: The effect of food on the pharmacokinetic parameters of 400 mg oral dose of nilotinib in the formulation mentioned above was studied in human subjects. […] In view of these findings, it is recommended that nilotinib shall not be taken with a meal in order to minimize the effect of food on nilotinib bioavailability. A statement in this regard is, for instance, included in sections 4.2, 4.4 and 4.5 of the SPC (Summary of Product Characteristics) of the marketing authorization for Tasigna™ issued by the European Medicines Agency (EMEA).

[2] = PK study in healthy volunteers (4-way crossover, morning vs evening dosing); type: in vivo, human
Description: The increased exposure with QHS was confirmed in a study investigating nilotinib pharmacokinetics in healthy volunteers (HV) comparing cohorts receiving 600 mg morning dose or 600 mg morning dose QHS, respectively. In a single center, 4-way crossover study (n=16-24), HV group A was administered 300 mg nilotinib (in the form of nilotinib monohydrochloride monohydrate) in the morning, 2 hours after breakfast; HV group B was administered 300 mg nilotinib (in the form of nilotinib monohydrochloride monohydrate) in the evening, 2 hours after diner; HV group C was administered 600 mg nilotinib (in the form of nilotinib monohydrochloride monohydrate) in the evening, 2 hours after diner; and HV group D was administered 600 mg nilotinib (in the form of nilotinib monohydrochloride monohydrate) in the evening, 4 hours after diner.
The nilotinib PK was compared when administered in the evening versus administration in the morning (B vs. A) and the potential residual food effect on nilotinib absorption was assessed (D vs. C).

[3] = Study in CML patients obtaining 400 mg nilotinib twice daily (trough concentrations C0, C12); type: in vivo, human; details: 21 CML patients, 400 mg twice daily
Description: 21 Patients were treated with 400 mg nilotinib twice daily. Blood samples were collected prior to morning dose (C0) and prior to evening dose (C12). […] With other words, the trough concentration of nilotinib in the morning was 60 to 80% higher than that observed in the evening.

[4] = 300 mg evening vs 300 mg morning
[5] = 600 mg evening 4 hours after diner vs 2 hours after diner
[6] = group A: 300 mg in the morning, 2 hours after breakfast, N = 20
[7] = group B: 300 mg in the evening, 2 hours after diner, N = 18
[8] = group C: 600 mg in the evening, 2 hours after diner, N = 22
[9] = group D: 600 mg in the evening, 4 hours after diner, N = 22

Compound: Cc1cn(-c2cc(NC(=O)c3ccc(C)c(Nc4nccc(-c5cccnc5)n4)c3)cc(C(F)(F)F)c2)cn1 [nilotinib, 4-methyl-3-[[4-(3-pyridinyl)-2-pyrimidinyl]amino]-N-[5-(4-methyl-1H-imidazol-1-yl)-3-(trifluoromethyl)phenyl] benzamide]
- increase in total exposure (AUC0-t) with food [1]: 29%
- total exposure (AUC0-t) increase with food [1]: 82%
- AUC0-12, Geometric Mean Ratio (90% Cls) B vs A [2, 4]: 1.21
- AUC0-24, Geometric Mean Ratio (90% Cls) B vs A [2, 4]: 1.21
- AUC0-inf, Geometric Mean Ratio (90% Cls) B vs A [2, 4]: 1.09
- AUC0-tlast, Geometric Mean Ratio (90% Cls) B vs A [2, 4]: 1.14
- Cmax, Geometric Mean Ratio (90% Cls) B vs A [2, 4]: 1.14
- tmax, Geometric Mean Ratio (90% Cls) B vs A [2, 4]: 0.49
- AUC0-12, Geometric Mean Ratio (90% Cls) D vs C [2, 5]: 0.93
- AUC0-24, Geometric Mean Ratio (90% Cls) D vs C [2, 5]: 0.93
- AUC0-inf, Geometric Mean Ratio (90% Cls) D vs C [2, 5]: 0.94
- AUC0-tlast, Geometric Mean Ratio (90% Cls) D vs C [2, 5]: 0.94
- Cmax, Geometric Mean Ratio (90% Cls) D vs C [2, 5]: 0.92
- tmax, Geometric Mean Ratio (90% Cls) D vs C [2, 5]: −0.49
- AUC0-12 [2, 6]: 4577 ng·h/mL
- AUC0-24 [2, 6]: 7781 ng·h/mL
- AUC0-inf [2, 6]: 14920 ng·h/mL
- AUC0-tlast [2, 6]: 13650 ng·h/mL
- Cmax [2, 6]: 577 ng/mL
- t1/2 [2, 6]: 20.3 h
- tmax [2, 6]: 4.0 h
- AUC0-12 [2, 7]: 5537 ng·h/mL
- AUC0-24 [2, 7]: 9435 ng·h/mL
- AUC0-inf [2, 7]: 16272 ng·h/mL
- AUC0-tlast [2, 7]: 15556 ng·h/mL
- Cmax [2, 7]: 655 ng/mL
- t1/2 [2, 7]: 14.5 h
- tmax [2, 7]: 4.0 h
- AUC0-12 [2, 8]: 7124 ng·h/mL
- AUC0-24 [2, 8]: 11857 ng·h/mL
- AUC0-inf [2, 8]: 23216 ng·h/mL
- AUC0-tlast [2, 8]: 20819 ng·h/mL
- Cmax [2, 8]: 854 ng/mL
- t1/2 [2, 8]: 20.5 h
- tmax [2, 8]: 4.0 h
- AUC0-12 [2, 9]: 6650 ng·h/mL
- AUC0-24 [2, 9]: 111064 ng·h/mL
- AUC0-inf [2, 9]: 21937 ng·h/mL
- AUC0-tlast [2, 9]: 19591 ng·h/mL
- Cmax [2, 9]: 782 ng/mL
- t1/2 [2, 9]: 19.9 h
- tmax [2, 9]: 4.0 h
- exposure higher following the evening dose than the morning dose ([2]; healthy volunteers, evening vs morning dose): up to 20%
- ratio C0/C12 (concentration prior to morning dose / prior to evening dose) [3]: 1.7
